Paper PMC10880585 (ACS infectious diseases, 2023)
Like-named read-outs stand apart in the source and are kept apart here.

Columns and labels:
P. falciparum strain 3D7 [1] = test: P. falciparum growth inhibition assay; format: cell-based, Plasmodium falciparum; conditions: read-out: Pf IC50
P. falciparum DXR [2] = target: T1, P. falciparum DXR (Plasmodium falciparum, UniProt O96693); test: biochemical
T1 sequence (O96693 73-488): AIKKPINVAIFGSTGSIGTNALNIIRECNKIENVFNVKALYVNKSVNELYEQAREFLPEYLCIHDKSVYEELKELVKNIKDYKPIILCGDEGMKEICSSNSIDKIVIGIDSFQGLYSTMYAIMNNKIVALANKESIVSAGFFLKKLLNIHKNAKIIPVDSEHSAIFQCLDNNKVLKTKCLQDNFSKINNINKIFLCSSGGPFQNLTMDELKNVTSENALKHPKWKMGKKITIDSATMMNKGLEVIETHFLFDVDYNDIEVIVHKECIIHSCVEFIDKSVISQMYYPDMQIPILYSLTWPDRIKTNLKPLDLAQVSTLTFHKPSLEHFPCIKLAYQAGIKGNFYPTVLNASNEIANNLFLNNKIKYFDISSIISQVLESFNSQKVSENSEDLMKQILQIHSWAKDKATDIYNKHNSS

P. falciparum DXR [3] = target: T1, P. falciparum DXR
[4] = Metabolic stability in mouse liver microsomes
[5] = test system: HAD1 mutant P. falciparum strain; test: Growth inhibition of had1 mutant P. falciparum; format: cell-based, Plasmodium falciparum; conditions: had1 mutant vs wild-type 3D7
P. falciparum strain 3D7 [6] = test: IPP rescue of P. falciparum growth inhibition; conditions: 250 μM IPP added to culture media, 72 h
HepG2 cells = test: HepG2 cytotoxicity assay; conditions: for IC50: Homo sapiens, HepG2, 24 h, read-out: HepG2 IC50; for cytotoxicity against HepG2: result in words
[7] = following iv dosing; cited from earlier work
[8] = Plasmodium falciparum, 3D7, Erythrocyte, 72 h

CCOP(=O)(/C=C/CN(O)C(=O)c1ccccc1)OCC [10a, Diethyl [(1E)-3-(N-Hydroxy-1-phenylformamido)prop-1-en-1-yl]phosphonate]
IC50 (P. falciparum strain 3D7 [1]; [8]): > 319 µM

CCOP(=O)(/C=C/CN(O)C(=O)Cc1ccccc1)OCC [10b, Diethyl [(1E)-3-(N-Hydroxy-2-phenylacetamido)prop-1-en-1-yl]phosphonate]
IC50 (P. falciparum strain 3D7 [1]; [8]): 337 µM

CCOP(=O)(/C=C/CN(O)C(=O)CCc1ccccc1)OCC [10c, Diethyl [(1E)-3-(N-Hydroxy-3-phenylpropanamido)prop-1-en-1-yl]phosphonate]
IC50 (P. falciparum strain 3D7 [1]; [8]): > 293 µM

CCOP(=O)(/C=C/CN(O)C(=O)CCCc1ccccc1)OCC [10d, Diethyl [(1E)-3-(N-Hydroxy-4-phenylbutanamido)prop-1-en-1-yl]phosphonate]
IC50 (P. falciparum strain 3D7 [1]; [8]): 31.2 µM

O=C(Cc1ccccc1)N(O)C/C=C/P(=O)(O)O [11b, Sodium Hydrogen [(1E)-3-(N-Hydroxy-2-phenylacetamido)prop-1-en-1-yl]phosphonate]
IC50 (P. falciparum DXR [2]): 0.17 µM | IC50 (P. falciparum strain 3D7 [1]; [8]): 0.468 µM

O=C(CCc1ccccc1)N(O)C/C=C/P(=O)(O)O [11c, Sodium Hydrogen [(1E)-3-(N-hydroxy-3-phenylpropanamido)prop-1-en-1-yl]phosphonate]
IC50 (P. falciparum DXR [2]): 1.34 µM | IC50 (P. falciparum strain 3D7 [1]; [8]): 10.8 µM

O=C(CCCc1ccccc1)N(O)C/C=C/P(=O)(O)O [11d, Sodium Hydrogen [(1E)-3-(N-Hydroxy-4-phenylbutanamido)prop-1-en-1-yl]phosphonate]
IC50 (P. falciparum DXR [3]; read-out: Pf DXR IC50): 0.898 µM | IC50 (P. falciparum strain 3D7 [1]; [8]): 4.98 µM

CC(C)(C)C(=O)OCOP(=O)(/C=C/CN(O)C(=O)c1ccccc1)OCOC(=O)C(C)(C)C [13a, [({[(2,2-Dimethylpropanoyl)oxy]methoxy}[(1E)-3-(N-hydroxy-1-phenylformamido)-prop-1-en-1-yl]phosphoryl)oxy]-methyl 2,2-dimethylpropanoate]
half-life at 1 μM ([4]; mouse, liver microsomes, pH 7.4): < 5 min | resistance of parasites with elevated intracellular DXP [5]: resistant | rescue of treated parasites by IPP (P. falciparum strain 3D7 [6]): rescued | IC50 (P. falciparum strain 3D7 [1]; [8]): 0.2 µM | IC50 (HepG2 cells): > 50 µM | cytotoxicity against HepG2 (HepG2 cells): non-toxic

CC(C)(C)C(=O)OCOP(=O)(/C=C/CN(O)C(=O)Cc1ccccc1)OCOC(=O)C(C)(C)C [13b, [({[(2,2-Dimethylpropanoyl)oxy]methoxy}[(1E)-3-(N-hydroxy-2-phenylacetamido)prop-1-en-1-yl]phosphoryl)oxy]-methyl 2,2-Dimethylpropanoate]
IC50 (P. falciparum strain 3D7 [1]; [8]): 0.304 µM

CC(C)(C)C(=O)OCOP(=O)(/C=C/CN(O)C(=O)CCCc1ccccc1)OCOC(=O)C(C)(C)C [13d, [({[(2,2-Dimethylpropanoyl)oxy]methoxy}[(1E)-3-(N-hydroxy-4-phenylbutanamido)prop-1-en-1-yl]phosphoryl)-oxy]methyl 2,2-Dimethylpropanoate]
IC50 (P. falciparum strain 3D7 [1]; [8]): 4.55 µM

O=CN(O)CCCP(=O)(O)O [compound 1, Fosmidomycin, reference compound]
resistance of parasites with elevated intracellular DXP [5]: higher resistance | rescue of treated parasites by IPP (P. falciparum strain 3D7 [6]): rescued | IC50 (P. falciparum strain 3D7 [1]; [8]): 1.02 µM | renal excretion [7]: 85%

CC(=O)N(O)CCCP(=O)(O)O [compound 2, FR-900098, reference compound]
IC50 (P. falciparum strain 3D7 [1]; […], 3 days, PicoGreen): 0.511 µM

N.N.O=C(c1ccccc1)N(O)C/C=C/P(=O)(O)O [compound 11a, Diammonium [(1E)-3-(N-Hydroxy-1-phenylformamido)-prop-1-en-1-yl]phosphonate]
improvement in activity against the enzyme (P. falciparum DXR [3]; 11a vs saturated compound 4): 2 fold | time stable in MLM ([4]; mouse liver microsomes): over 1 h | resistance of parasites with elevated intracellular DXP [5]: resistant | rescue of treated parasites by IPP (P. falciparum strain 3D7 [6]): rescued | IC50 (P. falciparum strain 3D7 [1]; [8]): 0.369 µM | IC50 (HepG2 cells): > 50 µM | cytotoxicity against HepG2 (HepG2 cells): non-toxic
